Where two headings read alike, the source gives them in different places.

The subject of series [1] is Red Blood Cells from whole human blood. The experiment in a line: Red Blood Cells hemolysis assay. The procedure:
Red Blood Cells from whole human blood were separated by centrifugation at room temperature and washed in sodium chloride solution two times and resuspended in phosphate buffer saline with pH 7.4. The resuspended red blood cells were incubated with the composition to be evaluated for 30 minutes at 37° C. The samples were centrifuged and the supernatant collected and analyzed for hemolysis using UV spectroscopy. The percentage of hemolysis was estimated against a negative control phosphate buffer saline with pH 7.4 and positive control 0.5% Triton-X100 prepared in phosphate-buffered saline with pH 7.4.
Red Blood Cells from whole human blood (5 milliliter) were separated by centrifugation (500×g, 5 minutes) at room temperature and washed in 150 mM sodium chloride (NaCl) solution two times and resuspended in a total final volume of 5 milliliter with phosphate buffered saline with pH 7.4. The resuspended red blood cells were incubated by mixing with materials listed in Table 1 for 30 minutes at 37° C. The samples were centrifuged (500×g, 5 minutes, room temperature), and supernatants were collected and analyzed for hemolysis using UV spectroscopy at spectra 540 nm. The percentage hemolysis was estimated against a negative control phosphate buffered saline with pH 7.4 and positive control 0.5% Triton-X100.

In series [2] the test system is circulating tumor cells (CTC). Put plainly: Destruction of circulating tumor cells using cisplatin. The following applies: CTCs isolated with composition of example 33; 30 micrograms Cisplatin in 100 microliter PBS pH 7.4, two hours. Type of series: cell-based, human. The procedure: 1.5 ml blood of a cancer patient was incubated with 300 micrograms of composition of example 33 for 5 minutes. CTCs were isolated using magnetic separation and cells were fixed with absolute ethanol and immuno-stained with cytokeratin (CK-18), leucocyte common antigen (CD-45) and with nuclear-staining probe 4′,6-diamidino-2-phenylindole (DAPI). Captured cells were imaged under fluorescence microscope, wherein 3 CTCs were isolated.
1.5 ml blood of a cancer patient was incubated with 300 micrograms of composition of example 33 for 5 minutes. CTCs were isolated using magnetic separation and incubated for two hours with 30 micrograms Cisplatin in 100 microliter phosphate buffered saline, pH 7.4, and the composition was fixed with absolute ethanol and immuno-stained with cytokeratin (CK-18), leucocyte common antigen (CD-45) and with nuclear-staining probe 4′,6-diamidino-2-phenylindole (DAPI) and imaged under fluorescence microscope.

For `CCO[Si](CCCN)(OCC)OCC` [(3-Aminopropyl)triethoxysilane], the “Percentage Hemolysis” value in series [1] (sample amount 0.5%, 30 minutes at 37° C.) came to 0%; in series [1] (sample amount 10%, 30 minutes at 37° C.), 36%. On to `N.N.[Cl][Pt][Cl]` [Cisplatin], for which, in series [2], the “CTCs observed after incubation with the drug” value is reported as “No CTCs were observed”. For the molecule Triton-X100, the “Percentage Hemolysis” value in series [1] turned out to be 100%.

Values taken from US20210106742A1, “NON-HEMOLYTIC COMPOSITIONS AND METHODS OF USE FOR RECOVERING DISEASE CAUSING TOXIC CONSTITUENTS IN THE BLOOD” (ACTORIUS INNOVATIONS AND RESEARCH CO, priority 2019, published 2021).
